{"source": "patent US20070004658A1", "about": "“Method and means for treatment of osteoarthritis” (priority 2004, published 2007)", "tested_on": "Normal human articular chondrocytes (NHAC's)", "test": "Aggrecan induction, Alcian blue stain assay", "format": "cell-based", "conditions": "primary human chondrocytes 12 days post infection, FIG. 5", "method": "A second assay to screen for chondrocyte anabolic factors is developed by monitoring the levels of aggrecan, another major constituent of cartilage. In this assay, glycosaminoglycans on aggrecan are stained by Alcian blue. NHACs are seeded in 384 well plates and 1 day after plating infected with individual Ad-siRNA from the SilenceSelect™ collection. […] Using Ad-BMP2 as a positive control, we confirm in a series of experiments that several parameters optimized for the ColII cELISA assay are also applicable for the Alcian blue stain assay for aggrecan. These parameters include cell seeding density, MOIs of control viruses, duration of infection, and the day of readout.\nNHAC's are seeded on day 0 at 1500 cells/well of a 384 well black-plate with clear bottom in 60 μl of DMEM/F12, containing 10% FBS-HI and Pen/Strep and infected the next day with 2.5 μl of Ad-BMP2 or Ad-eGFP; at an MOI of 2000. After 7 days, 10 μl of a 50 μg/ml 2-Phospho-L-ascorbic acid in assay culture medium is added to each well. […] After replacing 50% ethanol/3% acetic acid with 70% ethanol/3% acetic acid, each individual well is photographed with a SONY CCD camera, images are analyzed using a Galapagos Alcian blue quantification algorithm based on the separation of the blue signal through a color threshold procedure after a noise reduction filter. […]"}
{"sequence": "GGTGTATGGGCTCATGTAC (adenoviral siRNA, target sequence only, chemistry not fully specified) [Ad-siRNA targeting FZD1]", "values": [{"measurement": "aggrecan levels (Alcian blue staining)", "value": "does not seem to induce Alcian blue staining"}]}
